Results reported in a melting point compilation (Tetko et al.; mined from patent text by program, amines drawn as free bases though some values may be those of a salt).

| SMILES | melting point |
| --- | --- |
| CCCCCCCCNCC(O)COc1ccc(SC)cc1C (configuration not stated) | 59 to 60 °C |
| O=C1NC(Cc2ccccc2)C(=O)N/C1=C\c1ccc(O)cn1 (configuration not stated) | 251 to 252 °C |
| CCOC(=O)c1sc(-c2ccc(C(F)(F)F)cc2)nc1COC(C)=O | 82 °C |
| Cc1ccc(-c2cc3cc(-c4ccccc4)ccc3o2)cc1 | 156 to 158 °C |
| Nc1c(Cl)cc(C(O)CNCCCCCOCCCc2ccc(C(=O)O)o2)cc1Cl (configuration not stated) | 89 to 91 °C |
| N#CCCCCCCCCCOc1cccc(C(N)=O)c1 | 96 to 97 °C |
| CSCCS(=O)(=O)NCCCc1ccc(-c2ccc(=O)[nH]n2)cc1 | 173 to 174 °C |
| Cn1c(C(F)(F)F)cc(=O)n(-c2cc([N+](=O)[O-])c(Br)cc2F)c1=O | 124 to 125 °C |
| CCN(CCCCCCN)c1ccc2c(=O)[nH][nH]c(=O)c2c1 | 170 °C |
| NC1N=C(c2ccccc2)c2ccccc2N(CC(F)(F)F)C1=O (configuration not stated) | 141 to 143 °C |
| COc1cc2c(cc1OC)C(C(=O)O)C(c1ccc(OCc3ccccc3)c(OCc3ccccc3)c1)N(C)C2=O (configuration not stated) | 194 to 196 °C |
| O=C1C2=C(c3ccccc3)N(c3ccccc3)C(=O)C2=C(c2ccccc2)N1c1ccccc1 | > 300 °C |
| Cc1ccc(Nc2ncc(C=Cc3cccnc3)c3ccccc23)cc1Br | 91 °C |
| O=C1CCC(n2nc(-c3c(-c4ccccc4)nn4ccccc34)ccc2=O)CC1 | 138 to 140 °C |
| Cn1c(COc2ccc(CC3SC(=O)NC3=O)cc2)nc2ccc(Sc3ccccc3)nc21 (configuration not stated) | 166 to 168 °C |
| COc1ccc2ccccc2c1-c1c(C)c2c(c(C)c1P(c1ccccc1)c1ccccc1)COC2 | 159 °C |
| CC1=C(C(=O)OC(C)C)C(c2cccc([N+](=O)[O-])c2)N(C(=O)N(C)C)C(=O)N1 (configuration not stated) | 165 to 166 °C |
| O=c1ccoc(C(O)c2ccc(F)cc2)c1O (configuration not stated) | 154 to 156 °C |
| Nc1c2c(nc3ccccc13)-c1ccccc1CCC2 | 190 to 192 °C |
| O=C(NC1CCN(CCCOc2ccc3c4c(c(=O)oc3c2)CCC4)CC1)c1cccnc1 | 199 to 200 °C |
| CC(=O)N[C@@H](C)c1ccc(C(C)=O)cc1 | 125 to 128 °C |
| O=C1c2c(-c3ccccc3)noc2CCC1CCCN1CCCCC1 (configuration not stated) | 91.5 to 93.5 °C |
| S=C(N1CCCCC1)C1(c2ccccn2)CCCS1 (configuration not stated) | 90 °C |
| CC(C)(C)C(NC(=O)Cc1ccc(Cl)cc1)NC(=NC#N)Nc1cccc2ncccc12 (configuration not stated) | 195 to 196 °C |

| SMILES | melting point |
| --- | --- |
| O=C1c2ccncc2C(=O)c2c(F)ccc(F)c21 | 197 to 199 °C |
| OCCc1cccc(Nc2ccc3nc(N[C@@H]4CCc5ccccc54)ccc3c2)c1 | 109 °C |
| CCOC(=O)Cc1sc(Sc2ncccc2C(=O)OCC)nc1C | 181 to 183 °C |
| C[N+]1([O-])CC(c2ccccn2)C(=O)c2cc(Cl)ccc21 (configuration not stated) | 135 to 137 °C |
| Cc1cc(F)ccc1OC1CC(C#CC(C)N(O)C(N)=O)C1 (single isomer, unassigned; (+)) | 139 to 140 °C |
| CC1=C(C2C=CN(C(=O)OCC(Cl)(Cl)Cl)C=C2)SCC(=O)N1 | 158 to 160 °C |
| Cc1cc2c(c3c1C(c1ccc(C(C)C)cc1)CO3)CCC2 (configuration not stated) | 77 to 78 °C |
| N#Cc1cn(CO)cc1-c1ccccc1Cl | 94 to 97 °C |
| CCCCN(C1CCCOc2c(C)cc(Cl)cc21)S(=O)(=O)CC (configuration not stated) | 83 to 87 °C |
| Cc1ccc(S(=O)(=O)OCCN2C(=O)c3cccc4cc5ccccc5c(c34)C2=O)cc1 | 240 °C |
| CC1(C)OC(C=Cc2cc3ccccc3s2)=CC1=O | 104 °C |
| O=C(NC1CCC(c2cc(Nc3cccc(C(F)(F)F)c3)n[nH]2)C1)C1CCC1 (configuration not stated) | 232 °C |
| COc1cc(C(OC(C)=O)C(COC(C)=O)[N+](=O)[O-])cc(OC)c1OC (configuration not stated) | 107 to 109 °C |
| C=CCOc1cccc(C(=O)O)c1 | 78 to 79 °C |
| O=C1Nc2ccc(Cl)cc2C1(Cl)c1cccc2c1OCO2 (configuration not stated) | 241 °C |
| Cc1ncc([N+](=O)[O-])n1CCN1C(=O)C2CC=CCC2C1=O (configuration not stated) | 118 to 123 °C |
| CN(C(=O)c1ccc(CS(=O)(=O)Cn2cnc3ccccc32)cc1)C1CCCCC1 | 142 to 143 °C |
| COc1cc(NC(=O)Nc2ccccc2)c(O)c(OC)c1OC | 123 to 125 °C |
| COC(=O)C1=C(C)NC(C)=C(C(=O)OCCN(C)C)C1c1cccc2nonc12 (configuration not stated) | 99 °C |
| CCc1nc(Br)c(Br)[nH]1 | 149 to 150 °C |
| CN1CCCNC1=C[N+](=O)[O-] | 114 to 115 °C |
| CCCC=Cc1c(C(C)C)nc(C(C)C)c(CO)c1-c1ccc(F)c(F)c1 | 105 to 106 °C |
| COc1ccc(CCNC(=S)N2CCN(c3ncnc4cc(OC)c(OC)cc34)CC2)cc1OC | 98 to 100 °C |
| O=CNC1=NN(c2ccc(Cl)cc2)C(c2ccccc2)C1 (configuration not stated) | 164 to 166 °C |

| SMILES | melting point |
| --- | --- |
| CC(C)C[C@H](NC(=O)OC(C)(C)C)C(=O)N1CCN(C(c2ccc(F)cc2)c2ccc(F)cc2)CC1 | 59 to 66 °C |
| COc1ccc(C=O)cc1-n1nnnc1C | 157 °C |
| C=C1CCC(c2ccc(N3CC(COC)OC3=O)cc2)CC1 (racemic) | 63 to 65 °C |
| O=C(Oc1ccc([N+](=O)[O-])cc1)OC1CCN(C(=O)OCc2ccccc2)CC1 | 118 to 120 °C |
| CCOC(=O)c1c2ccc(CC(=O)NOCC(=O)N3CCOCC3)ccc-2c(C(=O)OCC)c1N | 196 to 198 °C |
| O=C(O)c1cn(C2CC2)c2nc(N3CCC(c4ccncc4)C3)c(F)cc2c1=O (configuration not stated) | 223 to 225 °C |
| N#Cc1nc(N)c(-c2ccccc2)nc1C#N | 167 to 168 °C |
| C=C(C)Cn1c(=O)n(C)c(=O)c2c[nH]nc21 | 232 to 233 °C |
| Cn1c(=O)n(SC(Cl)(Cl)Cl)n(-c2ccccc2)c1=O | 214 °C |
| CS(=O)(=O)N[C@@H]1CCCC[C@H]1Nc1nc(Nc2ccc3c(c2)CCC(F)(F)CC3)ncc1Cl | 118 to 128 °C |
| O=C(O)c1cc([N+](=O)[O-])cc(S(F)(F)(F)(F)F)c1 | 140 °C |
| O=C(CCCCCCS(=O)(=O)c1ccc2ccccc2c1)c1ncco1 | 75 to 76 °C |
| Oc1ccc2cc(-c3nc(-c4ccccc4)sc3Br)ccc2c1Br | 198 to 200 °C |
| Clc1ccc(Cl)c(CN2CCNc3ncc(C4=CCNCC4)cc32)c1 | 133 to 136 °C |
| COC1C(O)C(CO)OC1n1cc(C)c(=O)[nH]c1=O (configuration not stated) | 192 to 193 °C |
| COc1ccc(C2(C#Cc3cccc(-c4noc(C)n4)c3)CCCC(=O)C2)cc1OC1CCCC1 (configuration not stated) | 116 to 118 °C |
| CCCc1c(OCCCCCC(=O)c2c(C)c(C)c(O)c(O)c2C)ccc(C(=O)O)c1O | 169 to 170 °C |
| Cc1c(NC(=O)c2ccc(-c3ccc(Cl)s3)cc2)ccc2cc(CN3CCCCC3)cnc12 | 212 to 213 °C |
| CC(C)(C)C(O)(COc1ccc(F)cc1)C(F)n1cncn1 (configuration not stated) | 89 to 90 °C |
| CCCN(CC1CC1)c1nc(C)nc2c1CCCC2(C)c1ccc(Cl)cc1 (configuration not stated) | 171 to 172 °C |
| O=C(c1cccs1)c1cnn2c(-c3cccc(-c4ccn(CCN5CCCC5)n4)c3)ccnc12 | 63 °C |
| CON(Cc1ccc(C)cc1)C(=O)C1=C(O)C(=O)N(C)C1 | 150 to 152 °C |
| O=C(Cc1cccs1)c1c(O)c2cccnc2n(-c2ccccc2)c1=O | 197 to 199 °C |
| O=C(O)C(CC1CCCC1)c1ccc(-c2ccncc2)cc1 (configuration not stated) | 118 to 121 °C |
